Results from article PMC3561128, “Preclinical evaluation of carbon-11 and fluorine-18 sulfonamide derivatives for in vivo radiolabeling of erythrocytes” (EJNMMI Research, 2013).
pKi: −log10 of the molar value. Values joined by “and” are separate entries in the source; they are usually repeats but may differ in a detail not shown here. Identical values can stand only once. Like-named read-outs stand apart in the source and are kept apart here.

Key:
hCA I = hCA I (Homo sapiens, UniProt P00915); test: CA-catalyzed CO2 hydration, stopped-flow inhibition assay; assay type: biochemical; conditions: human (cloned) isozyme; CO2 hydration reaction at 20°C; n = 3
hCA I, sequence (P00915 whole entry): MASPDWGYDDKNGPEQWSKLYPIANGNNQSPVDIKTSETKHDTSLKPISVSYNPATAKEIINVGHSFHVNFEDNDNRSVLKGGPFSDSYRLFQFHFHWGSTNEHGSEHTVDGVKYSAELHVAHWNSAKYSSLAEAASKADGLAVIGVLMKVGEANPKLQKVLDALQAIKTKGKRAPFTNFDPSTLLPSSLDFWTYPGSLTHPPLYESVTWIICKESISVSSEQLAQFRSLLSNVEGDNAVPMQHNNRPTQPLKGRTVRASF
Protocol: (§1) Phenol red (0.2 mM) was used as indicator, working at the absorbance maximum of 557 nm, with 10 mM Hepes as buffer (pH 7.5) and 0.1 M Na2SO4 (for maintaining constant ionic strength) at 25°C following the CA-catalyzed CO2 hydration reaction for a period of 10 to 100 s (the uncatalyzed reaction needs around 60 to 100 s under assay conditions, whereas the catalyzed reactions take around 6 to 10 s). The CO2 concentrations ranged from 1.7 to 17 mM for the determination of kinetic parameters. Each compound was tested in the concentration range between 0.01 nM to 100 μM. The uncatalyzed rates were determined in the same manner and subtracted from the total observed rates. Stock solutions of the compounds (0.1 mM) were prepared in distilled water with 10% to 20% (v/v) DMSO (which is non-inhibitory at these concentrations), and dilutions up to 0.01 nM were made with distilled water. Inhibitor and enzyme solutions were preincubated together for 15 min at room temperature prior to the assay, in order to allow the formation of enzyme-inhibitor complex. The inhibition constants were obtained by nonlinear least square methods using PRISM 3 (GraphPad Software, La Jolla, CA, USA), and they represent the mean from at least three different determinations.

hCA II = hCA II (Homo sapiens, UniProt P00918); test: as above; assay type: biochemical; conditions: human (cloned) isozyme; CO2 hydration reaction at 20°C; n = 3
Protocol: as §1

[1] = Log D (1-octanol/phosphate buffer pH 7.4), shake flask method; assay type: physicochemical
Protocol: Determination of the distribution coefficient (log D1-octanol/phosphate buffer pH 7.4), was carried out by a shake flask method. An aliquot (25 μL) of the tracer agents ^18F]-(3), ^11C]-(4), ^18F]-(5), or ^11C]-(6) (185 to 555 kBq/mL) was added to a polypropylene tube (5 mL; Sarstedt, Nümbrecht, Germany) containing 2 mL of 0.025 M sodium phosphate buffer pH 7.4 and 2 mL of 1-octanol. The tube was vortexed for 2 min at room temperature followed by centrifugation at 3,000 rpm for 10 min (Eppendorf centrifuge 5810, Eppendorf, Westbury, NY, USA). Aliquots of 50 μL of the 1-octanol phase and 500 μL of the phosphate buffer phase were pipetted into separate tared Eppendorf tubes with adequate care to avoid cross contamination between the two phases. The samples were weighed, and radioactivity was quantified using an automated gamma counter. The experiments were carried out sixfold.

[2] = Biodistribution studies in NMRI mice; assay type: in vivo; conditions: i.v.; for Percentage of ID, blood: blood mass assumed 7% of body mass
Protocol: The biodistribution studies were performed in wild-type NMRI mice with body weights ranging from 30 to 40 g. Mice were intravenously injected with 0.1 MBq of ^18F]-(3) or ^18F]-(5) and 5.5 MBq of ^11C]-(4) or ^11C]-(6) under anesthesia (2% isoflurane in O2 at a flow rate of 1 L/min). The animals were killed by decapitation at 2 min or 60 min p.i. (n = 4/time point for ^18F]-(3), ^11C]-(4), and ^11C]-(6); n = 6 for ^18F]-(5)). Blood was collected, and all major organs were dissected and collected in tarred tubes and were weighed. The radioactivity in each organ was counted using an automated gamma counter, corrected for background radioactivity and expressed as follows: percentage of the injected dose (% ID) or as standardized uptake value (SUV) (SUV = (Counts in tissue per gram of tissue) / (Injected counts per total body mass (g)). For the calculation of total radioactivity in the blood, blood mass was assumed to be 7% of the body mass.

RBCs [3] = system: RBCs; design: method as in PMID 1647382, PMID 1647383; conditions: rats, 24 h p.i.; cited from earlier work
RBCs [4] = system: RBCs; design: method as in PMID 1647382, PMID 1647383; conditions: human volunteers, 24 h p.i.; cited from earlier work

Work on `NS(=O)(=O)c1ccc(CCNC(=O)c2ccc(OCCF)cc2)cc1` [(3)] yielded a pKi (hCA I) of 7.02, a pKi (hCA II) of 8.10 and a logD [1] of 1.13.
Work on `COc1ccc(C(=O)NCCc2ccc(S(N)(=O)=O)cc2)cc1` [(4)] yielded a pKi (hCA I) of 6.41, a pKi (hCA II) of 7.70 and a logD [1] of 1.19.
Work on `NS(=O)(=O)c1ccc(OCCF)cc1` [(5)] yielded a pKi (hCA I) of 4.51, a pKi (hCA II) of 6.47 and a logD [1] of 0.32.
`COc1ccc(S(N)(=O)=O)cc1` [(6)] showed a pKi (hCA I) of 4.61, a pKi (hCA II) of 6.37 and a logD [1] of 0.42.
In the case of `NS(=O)(=O)c1ccc(CCNC(=O)c2ccc(OCC[18F])cc2)cc1` [[^18F]-(3), 4-(2-[^18F]fluoroethoxy)benzoyl aminoethylbenzenesulfonamide], the pKi (hCA II) was 8.10, the “Percentage of ID, brain” value ([2]; 2 min p.i.) was 0.2 ± 0.0 % ID and the “Percentage of ID, carcass” value ([2]; 2 min p.i.) was 18.10 ± 2.32 % ID. For the same compound, the “Percentage of ID, heart” value ([2]; 2 min p.i.) was 0.8 ± 0.0 % ID, the “Percentage of ID, intestines” value ([2]; 2 min p.i.) was 5.9 ± 0.8 % ID and the “Percentage of ID, kidneys” value ([2]; 2 min p.i.) was 10.6 ± 0.8 % ID. The “Percentage of ID, liver” value ([2]; 2 min p.i.) was 15.8 ± 1.5 % ID, the “Percentage of ID, lungs” value ([2]; 2 min p.i.) was 2.3 ± 0.5 % ID and the “Percentage of ID, spleen + pancreas” value ([2]; 2 min p.i.) was 1.3 ± 0.2 % ID. The “Percentage of ID, stomach” value ([2]; 2 min p.i.) was 0.7 ± 0.1 % ID, the “Percentage of ID, urine” value ([2]; 2 min p.i.) was 0.2 ± 0.1 % ID and the “SUV, blood” value ([2]; 2 min p.i.) was 10.1 ± 0.6. For the same compound, the “SUV, brain” value ([2]; 2 min p.i.) was 0.2 ± 0.0, the “SUV, heart” value ([2]; 2 min p.i.) was 2.3 ± 1.3 and the “SUV, kidneys” value ([2]; 2 min p.i.) was 5.6 ± 0.6. The “SUV, liver” value ([2]; 2 min p.i.) was 3.2 ± 0.2, the “SUV, lungs” value ([2]; 2 min p.i.) was 3.5 ± 1.0 and the “SUV, spleen” value ([2]; 2 min p.i.) was 1.6 ± 0.2. For the same compound, the “Percentage of ID, blood” value ([2]; 2 min p.i.) was 71.0 ± 4.3 % ID, the “Percentage of ID, brain” value ([2]; 60 min p.i.) was 0.2 ± 0.1 % ID and the “Percentage of ID, carcass” value ([2]; 60 min p.i.) was 31.35 ± 3.67 % ID. For the same compound, the “Percentage of ID, heart” value ([2]; 60 min p.i.) was 0.2 ± 0.2 % ID, the “Percentage of ID, intestines” value ([2]; 60 min p.i.) was 18.6 ± 1.0 % ID and the “Percentage of ID, kidneys” value ([2]; 60 min p.i.) was 2.8 ± 0.1 % ID. For the same compound, the “Percentage of ID, liver” value ([2]; 60 min p.i.) was 8.3 ± 1.2 % ID, the “Percentage of ID, lungs” value ([2]; 60 min p.i.) was 0.7 ± 0.3 % ID and the “Percentage of ID, spleen + pancreas” value ([2]; 60 min p.i.) was 0.9 ± 0.3 % ID. For the same compound, the “Percentage of ID, stomach” value ([2]; 60 min p.i.) was 1.9 ± 1.3 % ID, the “SUV, blood” value ([2]; 60 min p.i.) was 4.5 ± 0.3 and the “SUV, brain” value ([2]; 60 min p.i.) was 0.1 ± 0.0. For the same compound, the “SUV, heart” value ([2]; 60 min p.i.) was 0.5 ± 0.4, the “SUV, kidneys” value ([2]; 60 min p.i.) was 1.6 ± 0.1 and the “SUV, liver” value ([2]; 60 min p.i.) was 1.7 ± 0.3. For the same compound, the “SUV, lungs” value ([2]; 60 min p.i.) was 1.1 ± 0.4, the “SUV, spleen” value ([2]; 60 min p.i.) was 1.1 ± 0.3 and the “Percentage of ID, blood” value ([2]; 60 min p.i.) was 32 % ID and 31.7 ± 2.1 % ID.
In the case of `NS(=O)(=O)c1ccc(I)cc1` [p-iodobenzenesulfonamide], the “Activity associated with RBCs” value (RBCs [3]) is listed as “about 50 % of the injected dose” and the “Activity associated with RBCs” value (RBCs [4]) is listed as “more than 88 % of the ID”.
